Test results: patent US12324927B2, “Methods and systems for photodynamic therapy calculations” (THE TRUSTEES OF THE UNIVERSITY OF PENNSYLVANIA, priority 2018, dated 2025)
“And” between values parts separate entries of the source, which are not always exact repeats. Equal entries are not always repeated.

What was measured:
[1] = Photofrin concentration and PDT dose at pleural cavity sites measured by fluorescence with 4-channel PDT dose dosimeter during Photofrin-mediated pleural PDT; type: in vivo, human; conditions: for Mean Photofrin concentration: local tissue concentration per patient and pleural site, Photofrin 2 mg kg^−1 i.v. 24 h before PDT, mean ± SD of smoothed values
Description: The patients in this study were enrolled in a Phase II randomized clinical trial of Photofrin-mediated PDT for pleural mesothelioma treatment. Having given informed consent, they were administered Photofrin (Pinnacle Biologics, Chicago, IL, USA) at 2 mg kg^−1 of body weight as an intravenous infusion 24 h prior to intra-operative PDT. PDT was performed in the operating room, immediately following radical pleurectomy and debulking of tumor. PDT treatment was performed with 632 nm light provided by a KTP-pumped dye laser (model 630 XP, Laserscope, Inc., San Jose, CA, USA) to a total fluence of 60 J cm^−2. Light was delivered to the pleural cavity via an optical fiber inserted into modified endotracheal tube filled with 0.1% intralipid to produce an extended isotropic light source. The pleural cavity was filled with 0.01% intralipid solution during PDT treatment. As the intralipid solution became contaminated with blood as observed by the treating physician, it was repeatedly removed by suction pump and replaced with fresh solution to minimize light absorption by hemoglobin. The light source was circulated around in the lung cavity by the physician during the PDT. The instantaneous light fluence rate and the cumulative light dose were monitored continuously using 8 isotropic detectors (Medlight, Switzerland) sutured to 8 strategic locations within the pleural cavity wall. […] Each spectrometer has wavelength range of 200 nm-1050 nm and resolution of 0.42 nm using a diode array of 2048×1 elements and 14 μm×200 μm per element. The spectral resolution achieved was 0.47 nm. Isotropic detectors 9 to 12 were connected to the multichannel dosimetry system only. The dosimetry system records light fluence rate using photodiodes. Light fluence rate at surface is measured directly with an isotropic detector placed on the surface. The measured light fluence rate is not reflective of intra-tissue light fluence rate, which may be higher or lower than the value on the tissue surface depending on the tissue optical properties. Fluorescence collected by the fibers was collimated and passed through long pass filters (Semrock, Inc., Rochester, NY, USA) to block the treatment light before the transmitted fluorescence was recorded by the spectrometers, whereas no filtration was required for the treatment-light signal in the other arm of the bifurcated fibers. The front view and the schematic diagram of the system setup are shown in FIGS. 1A-B. There are 16 channels on the system enclosure as shown in FIG. 1A. Channels 9 to 16 (top row) are connected to the dosimetry system only whereas Channels 1 to 4 (bottom row) are connected to both the dosimetry system and the spectrometers. Channels 5 to 8 (bottom row) are currently not used. In this study, Channels 1 to 4 are used to measure fluence rate of the treatment light and Photofrin fluorescence concurrently, while Channel 9 to 12 are used to measure light fluence rate only.
Diffuse reflectance measurements were acquired before and after PDT treatment using a specially designed fiber optic-based contact probe comprising (e.g., or consisting of) one source fiber, coupled to an air-cooled quartz-tungsten-halogen (QTH) lamp (Avalight HAL-S, Avantes, Inc., Louisville, CO, USA), and 9 detection fibers spaced at distances from 1.4 to 8.7 mm from the source. Measurements were made with the probe in contact with the interior surface of the pleural cavity. The reflected light was collected by the detection fibers which are imaged via a spectrograph onto a CCD, to measure radially-resolved diffuse reflectance. Background signal was measured in the same tissue with the white light source turned off, and then subtracted from each measurement. Each tissue spectrum is divided by the spectrum obtained with the same light source and detector in an integrating sphere to account for the wavelength-dependence of the white light source power and CCD response. […]

[2] = 10 min mock treatment in liquid tissue-simulating phantom with moving light source; type: physicochemical; conditions: 3 mg kg^−1 Photofrin, 0-70 mW cm^−2
Description: Excitation light intensity varies vastly during PDT as the light source was constantly circulated around in the lung cavity by the physician. To test the performance of the PDT dosimetry system in measuring Photofrin fluorescence with varying excitation light intensities, a 10 min mock treatment was performed using liquid tissue-simulating phantom (μa=0.3 cm^−1 and μ′s=9.6 cm^−1) with known Photofrin concentration of 3 mg kg^−1 and a moving light source. The fluorescence spectra were measured at the surface of the phantom using isotropic detectors as described above. The treatment started with the treatment light wand positioned at a fixed distance above the phantom for 1 min. The average fluence rate measured on the surface was 50 mW cm^−2. Then the light wand was moved randomly over the top of the phantom to simulate the variations in the light fluence rate due to the movement of treatment light source in the pleural cavity during PDT treatment. […] The Photofrin concentrations obtained from measured Photofrin fluorescence spectra using data analysis method described above are plotted as a function of treatment time as shown in FIG. 4B. Each data point represents Photofrin concentration obtained from one fluorescence spectrum and the solid lines represent the average Photofrin concentration calculated for every 1 min of data. […]

[3] = 22 sites, 8 patients, 2 mg kg^−1

mean of the local Photofrin concentrations measured from all sites [1, 3]: 3.94±2.01 mg kg 1
median of the local Photofrin concentrations measured from all sites [1, 3]: 3.37 ± 2.01 mg/kg
Mean Photofrin concentration ([1]; pleural site AS): 3.22 ± 0.35 mg/kg
Mean Photofrin concentration ([1]; pleural site Peri): 1.87 ± 0.31 mg/kg
photobleaching of Photofrin during mock treatment [2]: negligible photobleaching
Substance: Photofrin
Mean Photofrin concentration ([1]; pleural site ACW): 2.80 ± 0.27 mg/kg and 9.38 ± 0.57 mg/kg
Mean Photofrin concentration ([1]; pleural site Apex): 4.71 ± 0.15 mg/kg and 3.12 ± 0.35 mg/kg and 1.13 ± 0.02 mg/kg and 3.27 ± 0.71 mg/kg and 7.19 ± 0.92 mg/kg and 4.56 ± 0.45 mg/kg
Mean Photofrin concentration ([1]; pleural site PCW): 3.47 ± 0.42 mg/kg and 1.47 ± 0.20 mg/kg and 1.58 ± 0.21 mg/kg and 5.23 ± 0.47 mg/kg and 2.32 ± 0.23 mg/kg
Mean Photofrin concentration ([1]; pleural site PM): 5.65 ± 0.67 mg/kg and 3.62 ± 0.61 mg/kg and 6.81 ± 0.35 mg/kg
Mean Photofrin concentration ([1]; pleural site PS): 2.94 ± 0.12 mg/kg and 3.01 ± 0.05 mg/kg and 5.73 ± 0.24 mg/kg and 3.54 ± 0.16 mg/kg
difference of local sensitizer concentrations within the same patient ([1]; patient #020, same administered dose 2 mg kg^−1): 2.9 times
difference of local sensitizer concentrations between patients ([1]; patients #016 and #018, same administered dose 2 mg kg^−1): 8.3 times
